Source: PubChem BioAssay (NCI)
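Dose response: 5 concentrations. Exposure: 48 h. Format: 96-well plates. Endpoint: linear interpolation; highest concentration if not reached. At the TGI there is no net growth.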

What was measured:
Test in all cases: NCI anticancer screen, dose series, 48 h
[1] = tested on: MALME-3M melanoma
[2] = tested on: HT29 colon
[3] = tested on: SF-268 CNS
[4] = tested on: HOP-18 NSCLC
[5] = tested on: EKVX NSCLC
[6] = tested on: HCC-2998 colon
[7] = tested on: SNB-75 CNS
[8] = tested on: COLO 205 colon
[9] = tested on: NCI-H23 lung
[10] = tested on: OVCAR-8 ovarian
[11] = tested on: SK-OV-3 ovarian
[12] = tested on: TK-10 renal
[13] = tested on: SF-295 CNS
[14] = tested on: U251 CNS
[15] = tested on: KM20L2 colon
[16] = tested on: UACC-257 melanoma
[17] = tested on: M19-MEL melanoma
[18] = tested on: XF 498 CNS
[19] = tested on: NCI-H522 lung
[20] = tested on: CCRF-CEM leukemia
[21] = tested on: RXF 393 renal
[22] = tested on: SK-MEL-2 melanoma
[23] = tested on: ACHN renal
[24] = tested on: LXFL 529 NSCLC
[25] = tested on: A549 NSCLC
[26] = tested on: DLD-1 colon
[27] = tested on: HL-60(TB) leukemia
[28] = tested on: RPMI-8226 leukemia
[29] = tested on: SN12C renal
[30] = tested on: IGROV1 ovarian
[31] = tested on: K-562 leukemia
[32] = tested on: M14 melanoma
[33] = tested on: SR leukemia
[34] = tested on: SK-MEL-28 melanoma
[35] = tested on: HCT-116 colon
[36] = tested on: SF-539 CNS
[37] = tested on: 786-0 renal
[38] = tested on: KM12 colon
[39] = tested on: HOP-62 NSCLC
[40] = tested on: LOX IMVI melanoma
[41] = tested on: SNB-19 CNS
[42] = tested on: UACC-62 melanoma
[43] = tested on: OVCAR-3 ovarian
[44] = tested on: MOLT-4 leukemia
[45] = tested on: NCI-H460 lung
[46] = tested on: UO-31 renal
[47] = tested on: NCI-H226 lung
[48] = tested on: SW-620 colon
[49] = tested on: DMS 114 small cell lung
[50] = tested on: HOP-92 NSCLC
[51] = tested on: DMS 273 small cell lung
[52] = tested on: SNB-78 CNS
[53] = tested on: OVCAR-5 ovarian
[54] = tested on: SK-MEL-5 melanoma
[55] = tested on: HCT-15 colon
[56] = tested on: A498 renal
[57] = tested on: OVCAR-4 ovarian
[58] = tested on: CAKI-1 renal

SMILES: CC12CC(=O)OC(Cc3ccccc31)O2 (stereo not drawn)
- TGI [1]: > 100 µM
- TGI [2]: > 100 µM
- TGI [3]: > 100 µM
- TGI [4]: > 100 µM
- TGI [5]: > 100 µM
- TGI [6]: > 100 µM
- TGI [7]: > 100 µM
- TGI [8]: > 100 µM
- TGI [9]: > 100 µM
- TGI [10]: > 100 µM
- TGI [11]: > 100 µM
- TGI [12]: > 100 µM
- TGI [13]: > 100 µM
- TGI [14]: > 100 µM
- TGI [15]: > 100 µM
- TGI [16]: > 100 µM
- TGI [17]: > 100 µM
- TGI [18]: > 100 µM
- TGI [19]: > 100 µM
- TGI [20]: > 100 µM
- TGI [21]: > 100 µM
- TGI [22]: > 100 µM
- TGI [23]: > 100 µM
- TGI [24]: > 100 µM
- TGI [25]: > 100 µM
- TGI [26]: > 100 µM
- TGI [27]: > 100 µM
- TGI [28]: > 100 µM
- TGI [29]: > 100 µM
- TGI [30]: > 100 µM
- TGI [31]: > 100 µM
- TGI [32]: > 100 µM
- TGI [33]: > 100 µM
- TGI [34]: > 100 µM
- TGI [35]: > 100 µM
- TGI [36]: > 100 µM
- TGI [37]: > 100 µM
- TGI [38]: > 100 µM
- TGI [39]: > 100 µM
- TGI [40]: > 100 µM
- TGI [41]: > 100 µM
- TGI [42]: > 100 µM
- TGI [43]: > 100 µM
- TGI [44]: > 100 µM
- TGI [45]: > 100 µM
- TGI [46]: > 100 µM
- TGI [47]: > 100 µM
- TGI [48]: > 100 µM
- TGI [49]: > 100 µM
- TGI [50]: > 100 µM
- TGI [51]: > 100 µM
- TGI [52]: > 100 µM

SMILES: COC(=O)[C@H](C)[C@H]1CC[C@@](C)([C@H]2CC3C(C)(C)[C@H]4CCC(C)=C[C@H]4C[C@@]3(C)O2)OO1 (stereo partly drawn)
- TGI [53]: 26.2 µM
- TGI [1]: 28.3 µM
- TGI [2]: 27.2 µM
- TGI [3]: 25.9 µM
- TGI [54]: 17.8 µM
- TGI [55]: 24.2 µM
- TGI [5]: 27.6 µM
- TGI [6]: 18.7 µM
- TGI [7]: 18.1 µM
- TGI [8]: 23.8 µM
- TGI [9]: 23.6 µM
- TGI [10]: 26.2 µM
- TGI [11]: 56.6 µM
- TGI [56]: 24.1 µM
- TGI [12]: 28.9 µM
- TGI [13]: 28.4 µM
- TGI [14]: 26.1 µM
- TGI [15]: 27.5 µM
- TGI [16]: 27.5 µM
- TGI [17]: 28.8 µM
- TGI [57]: 30.1 µM
- TGI [18]: 21.8 µM
- TGI [58]: 18.2 µM
- TGI [19]: 3.32 µM
- TGI [20]: 16.3 µM
- TGI [22]: 31.4 µM
- TGI [23]: 23.4 µM
- TGI [24]: 7.79 µM
- TGI [25]: 23.2 µM
- TGI [26]: 25.9 µM
- TGI [27]: 5.57 µM
- TGI [28]: 18.4 µM
- TGI [29]: 24 µM
- TGI [30]: 11.1 µM
- TGI [31]: 24.2 µM
- TGI [32]: 25.8 µM
- TGI [33]: 30.5 µM
- TGI [34]: 31 µM
- TGI [35]: 22.3 µM
- TGI [36]: 28.4 µM
- TGI [37]: 20.2 µM
- TGI [38]: 25.7 µM
- TGI [39]: 37.1 µM
- TGI [40]: 3.5 µM
- TGI [41]: 28.2 µM
- TGI [42]: 35.6 µM
- TGI [43]: 27.7 µM
- TGI [44]: 25.3 µM
- TGI [45]: 4.62 µM
- TGI [46]: 19.2 µM
- TGI [47]: 28.9 µM
- TGI [48]: 27 µM
- TGI [49]: 14.2 µM
- TGI [50]: 12.4 µM
- TGI [51]: 26.1 µM
- TGI [52]: 28.9 µM
